Experimental data taken from patent US20250332119A1, “NOVEL ANTI-INFLAMMATORY COMPOSITION AND USE THEREOF” (ASK CO., LTD., priority 2023, published 2025).

Assays:
TNF-α = TNF-α mRNA expression by Realtime qRT-PCR in LPS-induced macrophages; assay type: cell-based, mouse; conditions: RAW264.7, LPS 24 hours
Protocol: (§1) To evaluate the inhibitory ability against inflammatory cytokines induced by LPS (lipopolysaccharide), mouse macrophages were used to assess the effect on the production of IL-1α and TNF-α, which are the early-stage inflammatory molecules. The cells used in the experiment were RAW264.7 (Mouse macrophage), which were cultured at 37° C. under 5% CO2 in Dulbecco's modified Eagle's medium (DMEM, Invitrogen) supplemented with 10% fetal bovine serum (FBS, Lonza) and 50 μg/mL streptomycin (Sigma).
(§2) Specifically, the cells were seeded into 6-well plates at a density of 1×10^6 cells/well and cultured at 37° C. in a 5% CO2 incubator for 24 hours. After removing the culture medium, the cells were replaced with fresh medium containing the sample and pre-incubated at 37° C. under 5% CO2 for 30 minutes. Following pretreatment with the sample for 30 minutes, the cells were exposed with LPS for 24 hours to induce an inflammatory response. As a control, cells treated with LPS alone, without sample treatment, were used.
(§3) Total RNA in cells was then extracted from cultured cells using Trizol reagent (Invitrogen, USA) for RNA analysis. The purity and integrity of the RNA were confirmed by measuring the A260 nm/A280 nm ratio, and RNA yield was measured by absorbance at 260 nm.
(§4) For cDNA synthesis, 3 μg of total RNA was mixed with Oligo dT 15 (500 ng/μL) primer, dNTP (10 mM), RTase inhibitor (40 U/μL), and Powerscript II RTase (Clontech, USA), followed by primer annealing at 25° C. for 10 minutes, cDNA synthesis at 42° C. for 60 minutes, and RTase denaturation at 95° C. for 5 minutes. PCR was performed to amplify IL-1α, TNF-α, and GAPDH from cDNA by mixing 3 μL of cDNA, 5 μL of 10×taq polymerase buffer, 2 μL of 10 mM dNTP, 2 μL each of 10 pmol primers, and 0.5 μL of taq polymerase, followed by the addition of distilled water to a final volume of 50 μL.
(§5) The primer sequences used are shown in Table 1, and the PCR process was carried out using the Real-time qRT PCR method with the LightCycler® 96 System (Roche Diagnostics).

[1] = test system: RAW264.7 (mouse macrophage); assay: NO production in LPS-induced mouse macrophages (Griess reagent); assay type: cell-based; conditions: RAW264.7, LPS 1 μg/mL, 24 hours, sample pretreatment 30 minutes, non-cytotoxic concentration range
Protocol: (§6) To evaluate the inhibitory ability against nitric oxide and PGE2 production induced by LPS (lipopolysaccharide), mouse macrophages were used to assess the effect on the production of nitric oxide (NO) and prostaglandin E2 (PGE2). The cells used in the experiment were RAW264.7 (mouse macrophage), which were cultured in Dulbecco's modified Eagle's medium (DMEM, Invitrogen) supplemented with 10% fetal bovine serum (FBS, Lonza) and 50 μg/mL streptomycin (Sigma) at 37° C. in 5% CO2.
Specifically, the cells were seeded into 96-well plates at a density of 1× 10^5 cells/well and incubated at 37° C. in a 5% CO2 incubator for 24 hours. The culture medium was removed from the cultured cells, and the medium was replaced with a fresh medium containing the test sample and the cells pre-incubated at 37° C. under 5% CO2 for 30 minutes. Following the 30-minute incubation, LPS was added to a final concentration of 1 μg/mL, and the cells were incubated at 37° C. in a 5% CO2 incubator for 24 hours. After incubation, 100 μL of the supernatant was transferred to a new 96-well plate and mixed with an equal volume of a 1:1 mixture of Griess reagent A and B, then 100 μL aliquot of the resulting mixture was dispensed into each well. Immediately after treatment with Griess reagent, absorbance was measured at 540 nm using a microplate reader. The NO production rate (%) of macrophages was calculated using Equation 1 below.

IL-1α = IL-1α mRNA expression by Realtime qRT-PCR in LPS-induced macrophages; assay type: cell-based, mouse; conditions: RAW264.7, LPS 24 hours
Protocol: as §1, §2, §3, §4, §5

[2] = test system: RAW264.7 (mouse macrophage); assay: PGE2 production in LPS-induced mouse macrophages (ELISA); assay type: cell-based; conditions: RAW264.7, LPS, 24 hours
Protocol: as §6
In addition, to evaluate the production of PGE2, a procedure similar to that described above was followed. The procedures for treating the cells with the sample and LPS after cell culture were identical. Subsequently, 100 μL aliquots of the supernatant were collected and transferred to a new 96-well plate, and diluted 10- to 20-fold with culture medium. In the NSB (Non-specific binding) wells of the Anti-Mouse IgG plate, 100 μL of culture medium was added. Then, 100 μL each of the standard and diluted supernatant were added to the respective wells, followed by 50 μL of blue PGE2-AP conjugate added to all wells except the blank well. 50 μL of culture medium was added to the NSB wells, and 50 μL of yellow PGE2 antibody was added to all wells except the blank and NSB wells. The plate was then shaken using an orbital shaker at 500 rpm for 2 hours at room temperature (22-25° C.). After 2 hours, the contents of the plate were discarded, and the wells were washed three times with 400 μL of washing buffer. Then, 200 μL of substrate solution was added to each well and the plate was incubated at room temperature (22-25° C.) for 45 minutes. After incubation, 50 μL of stop solution was added to each well, and the absorbance was immediately measured at 405 nm using a microplate reader. The PGE2 production rate (%) of macrophages was calculated using Equations 2 and 3 below.

[3] = test system: TNF-α, IL-6, IL-1B, and NOS2; conditions: Food Funct. 2017; 8 (11): 4150-4158; cited from earlier work
macrophages = conditions: Food Funct. 2017; 8 (11): 4150-4158; cited from earlier work
skeletal muscle cells = conditions: J Biotechnol. 2023; 368:53-59; cited from earlier work
[4] = test system: human breast carcinoma cells (MCF-7); conditions: Planta Med. 2011; 77 (2): 164-8; cited from earlier work

Structure (SMILES)	Relative TNF-α mRNA expression (TNF-α)	NO production [1]	Relative IL-1α mRNA expression (IL-1α)	PGE2 production [2]	PGE2 production ([2]; listed as linoleic acid)	expression of proinflammatory cytokines [3]	NO production in macrophages (macrophages)	Relative TNF-α mRNA expression (TNF-α; listed as araliadiol)	glucose uptake by skeletal muscle cells (skeletal muscle cells)	NO production ([1]; listed as araliadiol)	Relative IL-1α mRNA expression (IL-1α; listed as araliadiol)	PGE2 production ([2]; listed as araliadiol)	growth of human breast carcinoma cells (MCF-7) [4]
CCCCC/C=C\C/C=C\CCCCCCCC(=O)O [Assay-5, linoleic acid]	did not inhibit TNF-α mRNA expression	relatively high NO reduction at the lowest concentrations	tendency toward decreased IL-1α mRNA expression with increasing concentration	increase in PGE2 production with increasing concentration	increased the production of the inflammatory factor PGE2 as its concentration increased	suppressing the expression of proinflammatory cytokines including TNF-α, IL-6, IL-1B, and NOS2	inhibiting NO production in macrophages						
C=CC(O)C#CC#CC(O)/C=C\CCCCC (centres unmarked) [Assay-10, (9Z)-1,9-pentadecadiene-4,6-diyne-3,8-diol]	tendency toward decreased expression of both IL-1α and TNF-α mRNA with increasing concentration	relatively high NO reduction at the lowest concentrations	tendency toward decreased expression of both IL-1α and TNF-α mRNA with increasing concentration	decrease in PGE2 production with increasing concentration				relatively more reduced by araliadiol compared to linoleic acid	effectively enhance glucose uptake by skeletal muscle cells	higher NO reduction rate than linoleic acid	relatively more reduced by araliadiol compared to linoleic acid	decreased PGE2 production with increasing concentration	inhibit the growth of human breast carcinoma cells (MCF-7)
